From ChEMBL document CHEMBL1201862, “PubChem BioAssay data set” (2004)
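Interpolation was linear, between the two tested concentrations surrounding the appropriate level; five concentrations were tested over 48 hours in 96-well plates. Abbreviation: GI50, concentration required for 50% inhibition of growth.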 Activity calls are given as the source filed them. No stated cut-off is given here; in the data, active = GI50 up to about 1.1 µM and inactive = higher. Non-standard residues stand in square brackets, D forms with d. Residues, ends and D or L forms follow the SMILES beside them. ξ: configuration not given here. *: point of attachment. NMeF = CN[C@@H](Cc1ccccc1)C(=O)O; ξNMeV = CNC(C(=O)O)C(C)C; Boc = CC(C)(C)OC(=O)*; OBn = c1ccc(CO*)cc1

Key:
Test in all cases: growth of human tumour cells (NCI), 48 h
A549 = test system: A549
CCRF-CEM = test system: CCRF-CEM
HCT-116 = test system: HCT-116
HOP-92 = test system: HOP-92
IGROV-1 = test system: IGROV-1
LOX IMVI = test system: LOX IMVI
MOLT-4 = test system: MOLT-4
NCI-H23 = test system: NCI-H23
NCI-H460 = test system: NCI-H460
OVCAR-4 = test system: OVCAR-4
SF-295 = test system: SF-295
SK-MEL-5 = test system: SK-MEL-5
SNB-75 = test system: SNB-75
U-251 = test system: U-251
UACC-62 = test system: UACC-62
CAKI-1 = test system: CAKI-1
TK-10 = test system: TK-10

Measured: GI50

CCCCCC(CN1CCOCC1)C(=O)/C=C/c1ccccc1 (stereo not given)
inactive: A549 3.3 µM | CCRF-CEM 1.94 µM | HCT-116 1.75 µM | HOP-92 2.19 µM | IGROV-1 3.37 µM | LOX IMVI 1.37 µM | MOLT-4 1.71 µM | NCI-H23 3.36 µM | NCI-H460 2.77 µM | OVCAR-4 2.95 µM | SF-295 3.46 µM | SK-MEL-5 1.53 µM | SNB-75 7.13 µM | U-251 2.77 µM | UACC-62 1.46 µM

Nc1ccc(C(=O)O)c2[nH]c3ccccc3c(=O)c12
inactive: A549 > 100 µM | CAKI-1 > 100 µM | CCRF-CEM 88.7 µM | HCT-116 > 100 µM | HOP-92 > 100 µM | IGROV-1 > 100 µM | LOX IMVI > 100 µM | MOLT-4 > 100 µM | NCI-H460 > 100 µM | OVCAR-4 > 100 µM | SF-295 > 100 µM | SK-MEL-5 > 100 µM | SNB-75 31.9 µM | TK-10 > 100 µM | U-251 > 100 µM | UACC-62 > 100 µM

CCOC(=O)c1cnc2[nH]c(=O)c3ccccc3n2c1=O
inactive: A549 > 100 µM | CAKI-1 > 100 µM | CCRF-CEM > 100 µM | HCT-116 > 100 µM | HOP-92 > 100 µM | IGROV-1 > 100 µM | LOX IMVI > 100 µM | MOLT-4 > 100 µM | NCI-H23 > 100 µM | NCI-H460 > 100 µM | OVCAR-4 > 100 µM | SF-295 > 100 µM | SK-MEL-5 > 100 µM | SNB-75 > 100 µM | TK-10 > 100 µM | U-251 > 100 µM | UACC-62 > 100 µM

CCCC(N)C(=O)c1ccccc1 (stereo not given)
inactive: A549 > 100 µM | CAKI-1 > 100 µM | CCRF-CEM > 100 µM | HCT-116 > 100 µM | HOP-92 > 100 µM | IGROV-1 > 100 µM | LOX IMVI > 100 µM | NCI-H23 > 100 µM | NCI-H460 > 100 µM | OVCAR-4 > 100 µM | SF-295 > 100 µM | SK-MEL-5 > 100 µM | SNB-75 > 100 µM | TK-10 > 100 µM | U-251 > 100 µM | UACC-62 > 100 µM

CCN(CC)CCCCC1CCN(CC(=O)N2c3ccccc3NC(=O)c3ccccc32)CC1
inactive: A549 > 100 µM | CAKI-1 > 100 µM | CCRF-CEM 64.9 µM | HCT-116 > 100 µM | HOP-92 > 100 µM | MOLT-4 > 100 µM | NCI-H23 55.6 µM | OVCAR-4 > 100 µM | SF-295 > 100 µM | SK-MEL-5 > 100 µM | SNB-75 > 100 µM | TK-10 > 100 µM | UACC-62 > 100 µM

CC1CCCCc2nc3c(c(=O)n21)CCCC3 (stereo not given)
inactive: A549 > 100 µM | CAKI-1 > 100 µM | HCT-116 > 100 µM | HOP-92 > 100 µM | IGROV-1 > 100 µM | LOX IMVI > 100 µM | MOLT-4 > 100 µM | NCI-H23 > 100 µM | NCI-H460 > 100 µM | OVCAR-4 > 100 µM | SF-295 > 100 µM | SNB-75 > 100 µM | TK-10 > 100 µM | U-251 > 100 µM | UACC-62 > 100 µM

CC1(C)c2ccccc2C(C)(C)C(C(=O)Nc2ccccc2)C1C(=O)O (stereo not given)
inactive: A549 > 100 µM | CCRF-CEM > 100 µM | HCT-116 95.1 µM | HOP-92 > 100 µM | LOX IMVI > 100 µM | MOLT-4 > 100 µM | NCI-H23 > 100 µM | SF-295 > 100 µM | SK-MEL-5 > 100 µM | SNB-75 > 100 µM | TK-10 > 100 µM | U-251 > 100 µM | UACC-62 > 100 µM

NC(=O)CCC(Nc1c2ccccc2nc2ccccc12)C(=O)O (stereo not given)
inactive: A549 > 100 µM | CAKI-1 > 100 µM | CCRF-CEM > 100 µM | HCT-116 91 µM | HOP-92 41.1 µM | LOX IMVI 63.7 µM | MOLT-4 58.1 µM | NCI-H23 > 100 µM | NCI-H460 86.9 µM | OVCAR-4 4.14 µM | SF-295 > 100 µM | SNB-75 > 100 µM | TK-10 > 100 µM | U-251 > 100 µM

COc1ccc2nc3cc(Cl)ccc3c(Sc3ccc([N+](=O)[O-])cc3C)c2c1
inactive: A549 > 100 µM | CAKI-1 > 100 µM | CCRF-CEM > 100 µM | HCT-116 > 100 µM | HOP-92 > 100 µM | IGROV-1 > 100 µM | LOX IMVI > 100 µM | MOLT-4 > 100 µM | NCI-H23 > 100 µM | NCI-H460 > 100 µM | OVCAR-4 > 100 µM | SF-295 > 100 µM | SK-MEL-5 > 100 µM | SNB-75 > 100 µM | TK-10 > 100 µM | U-251 > 100 µM | UACC-62 > 100 µM

C=CCCCCCC(O)C(O)C/C=C\C/C=C\CC (stereo not given)
inactive: A549 > 18.8 µM | CAKI-1 > 18.8 µM | CCRF-CEM > 18.8 µM | HCT-116 > 18.8 µM | HOP-92 > 18.8 µM | IGROV-1 > 18.8 µM | LOX IMVI > 15.4 µM | MOLT-4 > 14.9 µM | NCI-H23 > 17.8 µM | NCI-H460 13.5 µM | OVCAR-4 > 18.8 µM | SF-295 > 18.8 µM | SK-MEL-5 > 17.5 µM | SNB-75 > 18.8 µM | TK-10 > 18.8 µM | U-251 > 18.8 µM | UACC-62 > 18.8 µM

Clc1cc2n[se]nc2cc1Cl
inactive: A549 > 100 µM | CAKI-1 > 100 µM | CCRF-CEM > 100 µM | HCT-116 > 100 µM | IGROV-1 > 100 µM | LOX IMVI > 100 µM | MOLT-4 > 100 µM | NCI-H23 > 100 µM | NCI-H460 > 100 µM | OVCAR-4 > 100 µM | SF-295 > 100 µM | SK-MEL-5 > 100 µM | SNB-75 36.1 µM | TK-10 > 100 µM | U-251 > 100 µM | UACC-62 > 100 µM

[N-]=[N+]=NC1C(Cl)C(=O)NC(=O)N1[C@H]1C[C@H](O)[C@@H](CO)O1 (stereo not given in full)
inactive: A549 > 100 µM | CAKI-1 > 100 µM | HOP-92 > 100 µM | IGROV-1 > 100 µM | LOX IMVI > 100 µM | MOLT-4 > 100 µM | NCI-H23 > 100 µM | NCI-H460 > 100 µM | OVCAR-4 > 100 µM | SF-295 > 100 µM | SNB-75 > 100 µM | TK-10 > 100 µM | U-251 > 100 µM | UACC-62 > 100 µM

COC(=O)C(Cc1nc2ccccc2nc1C)/C(=N\NC(N)=O)C(=O)Nc1cccc([N+](=O)[O-])c1 (stereo not given)
inactive: A549 > 100 µM | CAKI-1 > 100 µM | CCRF-CEM 29.6 µM | HCT-116 > 100 µM | IGROV-1 > 100 µM | LOX IMVI > 100 µM | MOLT-4 57.5 µM | NCI-H23 71.8 µM | NCI-H460 > 100 µM | OVCAR-4 > 100 µM | SF-295 > 100 µM | SK-MEL-5 > 100 µM | SNB-75 > 100 µM | TK-10 > 100 µM | U-251 37.6 µM | UACC-62 45.2 µM

CC1=C(C(=O)Nc2c(C)cccc2C)C(c2ccc3c(c2)OCO3)C(C(=O)Nc2c(C)cccc2C)=C(C)N1
inactive: A549 19.7 µM | CAKI-1 25.1 µM | CCRF-CEM 7.36 µM | HCT-116 14.3 µM | IGROV-1 4.2 µM | LOX IMVI 13.7 µM | MOLT-4 15 µM | NCI-H23 16.1 µM | NCI-H460 18.5 µM | OVCAR-4 30.3 µM | SF-295 16.5 µM | SNB-75 17.8 µM | TK-10 24.7 µM | U-251 15.5 µM | UACC-62 2.7 µM

CC(C)C(C(=O)N1CCC[C@@H]1C(=O)OCc1ccccc1)N(C)C(=O)C(C(C)C)N(C)C(=O)[C@H](Cc1ccccc1)N(C)C(=O)[C@H](NC(=O)OC(C)(C)C)C(C)C (stereo not given in full) (Boc-[dV][NMeF][ξNMeV][ξNMeV][dP]-OBn)
inactive: A549 6.55 µM | CCRF-CEM > 54.5 µM | HCT-116 14.5 µM | HOP-92 68.4 µM | IGROV-1 > 100 µM | LOX IMVI > 60.3 µM | MOLT-4 7.94 µM | NCI-H23 > 81.3 µM | NCI-H460 > 24.3 µM | OVCAR-4 > 54.2 µM | SF-295 9.04 µM | SK-MEL-5 14.9 µM | SNB-75 9.91 µM | TK-10 > 100 µM | U-251 > 100 µM | UACC-62 > 100 µM

CSc1nc(NC(=O)O)c(N(C(C)=O)C(=O)O)c(=O)n1C
inactive: A549 > 100 µM | CAKI-1 > 100 µM | CCRF-CEM > 100 µM | HCT-116 > 100 µM | HOP-92 > 100 µM | IGROV-1 > 100 µM | LOX IMVI > 100 µM | MOLT-4 > 100 µM | NCI-H460 > 100 µM | OVCAR-4 > 100 µM | SF-295 > 100 µM | SK-MEL-5 > 100 µM | U-251 > 100 µM | UACC-62 > 100 µM

C=C/C=C/NC(=O)OCc1ccccc1
inactive: A549 > 100 µM | CAKI-1 > 100 µM | CCRF-CEM > 100 µM | HCT-116 > 100 µM | HOP-92 > 100 µM | IGROV-1 > 100 µM | LOX IMVI > 100 µM | MOLT-4 > 100 µM | NCI-H460 > 100 µM | OVCAR-4 > 100 µM | SF-295 > 100 µM | SK-MEL-5 > 100 µM | SNB-75 > 100 µM | TK-10 > 100 µM | U-251 > 100 µM | UACC-62 > 100 µM
